In data set [1] the test system is animals (rats, cats, dogs, pigs and monkeys). The following applies: fed to animals over a period of 60 weeks; cited from earlier work.
Data set [2] relates to radiation-induced oral mucositis (mucosal ulceration) in the tongue of rats. In words: Radiation-induced oral mucositis in rat tongue, single dose studies (Example 2). In kind it is in vivo, Sprague-Dawley rats. The following applies: single dose irradiation of rat tongue; 0.5 ml per day oral gavage; placebo water. From the text: The animals were maintained, and all experimental procedures performed in compliance with the Animal (Scientific Procedures) Act 1986. While under anaesthesia the animal's tongue was slightly extended outside and a region of the underside of the tongue was irradiated in situ with single doses of 2.27 MeV β-rays from a 5 mm or 11 mm diameter ^90Sr/^90Y plaque. The dose-rate of the 5 mm ^90Sr/^90Y plaque was ˜10 Gy/min and that of 11 mm source was ˜3 Gy/min at the surface of the mucus membrane 5 mm source was used for single dose study and 11 mm source was used for fractionated studies. The irradiation was carried out by simply positioning the sealed ^90Sr/^90Y plaque in contact with the surface of the tongue. The tongue was stretched gently and radioactive source was placed with a uniform pressure in all cases in order to avoid any local hypoxia. […]
A total of 144 rats were used for this part of study. […] From the day after irradiation, until any acute radiation-induced oral mucosal lesion had healed, the animals' tongues were assessed daily for the presence of radiation-induced mucositis (mucosal ulceration) under light anaesthesia, maintained with a 1.5% Halothane, oxygen mixture. […] The dose modification factor (DMF), defined as the ratio of the dose of radiation to cause mucositis in ‘active’ agent group to that in ‘placebo’ group, was calculated. […]

For the compound `COc1cc(/C=C/C(=O)CC(=O)/C=C/c2ccc(O)c(OC)c2)ccc1O` [Curcumin, diferuloylmethane], the “Doses that have shown no toxicity” value in data set [1] is 500-5000 mg/kg body weight. Turning to `Cc1c(C)c2c(c(C)c1O)CC[C@@](C)(CCC[C@H](C)CCC[C@H](C)CCCC(C)C)O2` [α-tocopherol, 5,7,8-trimethyltocol], the “Dose modification factor (DMF), active agent group vs placebo group” value in data set [2] came to 1.05.

Source of the values: patent publication US20050222250A1, “Curcumin for the prevention and/or treatment of tissue damage” (priority 2002, published 2005).
